Several values for one entry are separate records, joined by “and”; a condition that tells them apart may be missing. Identical values can stand only once.
What was measured:
Assay type in all cases: cell-based
320 non-olfactory GPCRs [1] = molecular target: T1, 320 non-olfactory GPCRs (Homo sapiens, UniProt Q9H1Y3); conditions: receptor OPN3; replicate values, Fig_4g
T1 construct: expressed in transfected cells; host or cells: HTLA cells

320 non-olfactory GPCRs [2] = molecular target: T2, 320 non-olfactory GPCRs (Homo sapiens, UniProt O00398); conditions: receptor P2RY10; replicate values, Fig_4g
T2 construct: expressed in transfected cells; host or cells: HTLA cells
T2 sequence (O00398 whole entry): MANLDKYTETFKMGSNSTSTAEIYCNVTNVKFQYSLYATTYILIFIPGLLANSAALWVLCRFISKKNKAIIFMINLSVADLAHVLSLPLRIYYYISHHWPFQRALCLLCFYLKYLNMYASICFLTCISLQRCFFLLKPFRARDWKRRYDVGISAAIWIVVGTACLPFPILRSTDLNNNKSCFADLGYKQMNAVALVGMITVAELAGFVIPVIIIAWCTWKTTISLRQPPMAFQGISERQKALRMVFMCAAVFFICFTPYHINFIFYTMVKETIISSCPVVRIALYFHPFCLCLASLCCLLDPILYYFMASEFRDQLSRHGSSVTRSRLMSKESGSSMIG

320 non-olfactory GPCRs [3] = molecular target: T3, 320 non-olfactory GPCRs (Homo sapiens, UniProt Q6U736); conditions: receptor OPN5; replicate values, Fig_4g
T3 construct: expressed in transfected cells; host or cells: HTLA cells
T3 sequence (Q6U736 whole entry): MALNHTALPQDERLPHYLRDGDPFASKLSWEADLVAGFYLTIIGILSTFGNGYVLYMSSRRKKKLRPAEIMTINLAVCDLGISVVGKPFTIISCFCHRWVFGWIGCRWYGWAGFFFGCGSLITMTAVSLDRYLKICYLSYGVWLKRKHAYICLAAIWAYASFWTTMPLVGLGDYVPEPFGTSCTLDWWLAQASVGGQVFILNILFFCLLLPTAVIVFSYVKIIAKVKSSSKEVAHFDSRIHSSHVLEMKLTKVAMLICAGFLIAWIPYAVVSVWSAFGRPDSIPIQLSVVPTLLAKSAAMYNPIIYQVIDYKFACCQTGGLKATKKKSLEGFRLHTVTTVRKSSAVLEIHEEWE

320 non-olfactory GPCRs [4] = molecular target: T4, 320 non-olfactory GPCRs (Homo sapiens, UniProt P34995); conditions: receptor PTGER1; replicate values, Fig_4g
T4 construct: expressed in transfected cells; host or cells: HTLA cells
T4 sequence (P34995 whole entry): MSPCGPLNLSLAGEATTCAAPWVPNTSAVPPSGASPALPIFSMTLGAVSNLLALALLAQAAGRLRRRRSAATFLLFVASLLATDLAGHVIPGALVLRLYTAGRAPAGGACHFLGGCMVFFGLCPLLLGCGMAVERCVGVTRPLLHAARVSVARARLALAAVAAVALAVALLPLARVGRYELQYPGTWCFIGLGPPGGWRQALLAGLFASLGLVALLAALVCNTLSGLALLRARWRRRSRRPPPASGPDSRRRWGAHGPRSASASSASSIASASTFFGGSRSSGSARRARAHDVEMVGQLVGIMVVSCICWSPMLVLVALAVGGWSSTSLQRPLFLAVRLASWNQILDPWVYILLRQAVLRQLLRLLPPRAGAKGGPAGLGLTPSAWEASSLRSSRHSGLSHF
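Also: fold over basal response of each receptor without drug.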

T1 sequence (Q9H1Y3 whole entry): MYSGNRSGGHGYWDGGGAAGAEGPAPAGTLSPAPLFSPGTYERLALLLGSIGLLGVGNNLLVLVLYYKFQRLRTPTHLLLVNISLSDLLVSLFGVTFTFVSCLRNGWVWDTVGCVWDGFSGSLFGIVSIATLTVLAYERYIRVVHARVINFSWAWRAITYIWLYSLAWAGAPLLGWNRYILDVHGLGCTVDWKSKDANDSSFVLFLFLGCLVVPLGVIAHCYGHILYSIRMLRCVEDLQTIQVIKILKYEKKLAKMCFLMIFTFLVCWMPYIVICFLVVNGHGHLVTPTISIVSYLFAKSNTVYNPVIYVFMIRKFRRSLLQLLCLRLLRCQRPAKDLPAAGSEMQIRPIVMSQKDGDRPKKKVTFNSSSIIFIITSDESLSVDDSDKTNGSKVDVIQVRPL

Question: What does the source list for `CCOc1cccc2cc(C(C)NCC3(O)CCCCC3)oc12` (stereo not shown) [O4LE6]?
Answer: GPCRome agonism screen response (320 non-olfactory GPCRs [1]): 1.462 and 1.944 and 1.753 and 1.142; GPCRome agonism screen response (320 non-olfactory GPCRs [2]): 0.6744 and 0.6284 and 0.7052 and 0.972; GPCRome agonism screen response (320 non-olfactory GPCRs [3]): 0.05197 and 0.3541 and 1.246 and 1.464; GPCRome agonism screen response (320 non-olfactory GPCRs [4]): 0.6283 and 0.5508 and 0.6804 and 0.7397
